Results on ten compounds are retold here after ChEMBL document CHEMBL1201862, “PubChem BioAssay data set” (2004).

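1) Cells in 96-well plates. 2) Compound, 48 h, 5 concentrations. 3) Linear interpolation between surrounding doses. 4) Unreached endpoint = highest concentration. Here, GI50 denotes the concentration required for 50% inhibition of growth.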 Calls of active or inactive are those of the source. Rule as the data show it: active = GI50 up to about 1.1 µM and inactive = higher. Where only a bound is given, the exact number is not on record here.

Test systems include OVCAR-8; A549; KM12; LOX IMVI; HT-29; K562; OVCAR-3; DU-145; COLO 205; RXF 393; M14; NCI/ADR-RES; OVCAR-4; NCI-H23; SK-MEL-28; NCI-H522; TK-10; SR; SK-MEL-5; UACC-257.
What all share (test): NCI anticancer screen, dose series, 48 h

With `Oc1cc(Br)cc2cccnc12`, the GI50 in the assay on OVCAR-8 is 1.29 µM (inactive); with A549 it was 1.52 µM (inactive); in the assay on KM12 it was 4.7 µM (inactive); in the assay on LOX IMVI, 0.908 µM (active); in the assay on HT-29, 8.22 µM (inactive); in the assay with K562, 0.82 µM (active). Besides, the GI50 in the assay on OVCAR-3 was 1.05 µM (active); with DU-145 it was 9.91 µM (inactive); in the assay with COLO 205 it was 11.6 µM (inactive); in the assay with RXF 393 it was 2.05 µM (inactive); in the assay on M14 it was 1.37 µM (inactive); in the assay with NCI/ADR-RES it was 1.25 µM (inactive). Besides, the GI50 with OVCAR-4 was 1.25 µM (inactive); with NCI-H23, 2.58 µM (inactive); in the assay with SK-MEL-28 it was 17.3 µM (inactive); in the assay with NCI-H522, 1.64 µM (inactive); in the assay with TK-10 it was 31.5 µM (inactive); with SR, 0.56 µM (active). Further, the figures for the GI50 in the assay with SK-MEL-5 and in the assay on UACC-257 were 2.38 µM (inactive) and 2.6 µM (inactive), respectively.

`C=C(CCC/C(C)=C/C=C/[C@@H](C)CCCc1ccoc1)C[C@@H]1OC(=O)[C@H](C)[C@@H]1O`: the GI50 in the assay with OVCAR-8 is 10.1 µM (inactive); with A549, 7.29 µM (inactive); in the assay on KM12, 7.24 µM (inactive); with LOX IMVI it was 9.71 µM (inactive); in the assay on HT-29, > 50 µM (inactive); in the assay with K562 it was 21.5 µM (inactive). For the same compound, the GI50 was 7.13 µM (inactive) in the assay with OVCAR-3; 10.6 µM (inactive) in the assay on DU-145; 8.43 µM (inactive) with COLO 205; 10.3 µM (inactive) in the assay with RXF 393; 9.33 µM (inactive) in the assay with M14; 9.04 µM (inactive) in the assay with NCI/ADR-RES. Also, the GI50 is 10.2 µM (inactive) in the assay with OVCAR-4; 8.09 µM (inactive) with NCI-H23; 10.1 µM (inactive) in the assay on SK-MEL-28; 7.08 µM (inactive) with NCI-H522; 13.1 µM (inactive) in the assay with TK-10; 10.7 µM (inactive) with SR. For the same compound, the results for the GI50 with SK-MEL-5 and with UACC-257 were 6.3 µM (inactive) and 6.35 µM (inactive), respectively.

Regarding `c1ccc2sc(C3(N4CCCCC4)CCCC3)cc2c1`, the GI50 in the assay with OVCAR-8 is 10.4 µM (inactive); with A549 it was 5.43 µM (inactive); in the assay on KM12, 7.01 µM (inactive); in the assay on LOX IMVI, 17.9 µM (inactive); in the assay with HT-29 it was 3.24 µM (inactive); with K562 it was 6.61 µM (inactive). In addition, the GI50 in the assay with OVCAR-3 is 8.69 µM (inactive); in the assay on DU-145, 11.3 µM (inactive); in the assay on COLO 205, 5.53 µM (inactive); in the assay on RXF 393, 14.1 µM (inactive); in the assay on M14 it was 15.1 µM (inactive); in the assay on NCI/ADR-RES, 6.24 µM (inactive). In addition, the GI50 in the assay with OVCAR-4 was 9.02 µM (inactive); in the assay with NCI-H23, 4.06 µM (inactive); with SK-MEL-28, 14.6 µM (inactive); in the assay with NCI-H522, 11.4 µM (inactive); in the assay with TK-10, 13.6 µM (inactive); in the assay with SR it was 0.838 µM (active). Also, the results for the GI50 with SK-MEL-5 and in the assay on UACC-257 were 10.9 µM (inactive) and 14.6 µM (inactive), respectively.

For the compound `CCOc1ccc(C2Oc3c(cccc3OC)C=C2[N+](=O)[O-])cc1OCC` (centres undefined), the GI50 is 2 µM (inactive) in the assay on OVCAR-8; 17.3 µM (inactive) with A549; 5.43 µM (inactive) in the assay on KM12; 1.97 µM (inactive) in the assay with LOX IMVI; 2.86 µM (inactive) in the assay with HT-29; 1.87 µM (inactive) in the assay on K562. Further, the GI50 was 4.91 µM (inactive) with OVCAR-3; 14.6 µM (inactive) in the assay on DU-145; 3.68 µM (inactive) with COLO 205; 3 µM (inactive) in the assay with RXF 393; 2.38 µM (inactive) in the assay with M14; 3.15 µM (inactive) in the assay on NCI/ADR-RES. The GI50 in the assay on OVCAR-4 was 10.9 µM (inactive); with NCI-H23 it was 6.67 µM (inactive); with SK-MEL-28, 2.24 µM (inactive); in the assay with NCI-H522, 1.84 µM (inactive); with TK-10, 15.5 µM (inactive); in the assay on SR, 1.62 µM (inactive). For the same compound, the GI50 is 4.8 µM (inactive) in the assay with SK-MEL-5 and 3.66 µM (inactive) in the assay with UACC-257.

Take `CCOC(=O)C(=C(SC)SC)c1nn2c(=O)cc(C)nc2s1`: the GI50 is 23.8 µM (inactive) with OVCAR-8; 49.5 µM (inactive) with A549; 33 µM (inactive) in the assay with KM12; 15.7 µM (inactive) in the assay with LOX IMVI; 20.9 µM (inactive) in the assay with HT-29; 19.2 µM (inactive) with K562. Besides, the GI50 with OVCAR-3 is 18.7 µM (inactive); in the assay with DU-145, 16.5 µM (inactive); with COLO 205, 18.6 µM (inactive); in the assay on RXF 393, 22.6 µM (inactive); with M14, 15.9 µM (inactive); with NCI/ADR-RES it was 36.5 µM (inactive). Moreover, the GI50 is 28.5 µM (inactive) with OVCAR-4; 32.9 µM (inactive) in the assay on NCI-H23; 17.1 µM (inactive) in the assay on SK-MEL-28; 23 µM (inactive) in the assay with NCI-H522; 23.4 µM (inactive) in the assay with TK-10; 24.4 µM (inactive) with SR. Also, the results for the GI50 in the assay with SK-MEL-5 and in the assay on UACC-257 were 22 µM (inactive) and 23.9 µM (inactive), respectively.

For `CCCCC1Nc2ccccc2-c2ccnc(Cl)c21` (centres undefined), the GI50 with A549 is 28.1 µM (inactive); in the assay on KM12, 20.7 µM (inactive); with LOX IMVI it was 16.6 µM (inactive); in the assay on HT-29, 10.8 µM (inactive); with K562, 20.9 µM (inactive); in the assay with OVCAR-3, 11.1 µM (inactive). In addition, the GI50 in the assay with DU-145 is 20.5 µM (inactive); in the assay with COLO 205, 15.7 µM (inactive); with RXF 393, 18.5 µM (inactive); in the assay with M14, 19.1 µM (inactive); in the assay with NCI/ADR-RES, 27.7 µM (inactive); with OVCAR-4, 20.1 µM (inactive). Further, the GI50 with NCI-H23 is 16.5 µM (inactive); in the assay with SK-MEL-28, 17.8 µM (inactive); in the assay on NCI-H522, 11.7 µM (inactive); with TK-10, 33 µM (inactive); in the assay on SR, 18.7 µM (inactive); in the assay with SK-MEL-5, 15.2 µM (inactive). Moreover, the GI50 in the assay on UACC-257 is 20 µM (inactive).

Consider `CC1(/C=C/CCSc2ccccc2)CC(=O)C2CC1C2(C)C` (centres undefined), for which the GI50 in the assay with OVCAR-8 was 22.3 µM (inactive); in the assay with A549, 14.8 µM (inactive); with KM12 it was 13.2 µM (inactive); in the assay with LOX IMVI it was 14.8 µM (inactive); with HT-29, 12.4 µM (inactive); with K562, 5.79 µM (inactive). Moreover, the GI50 in the assay with OVCAR-3 is 23.1 µM (inactive); in the assay with DU-145, 44.3 µM (inactive); in the assay with COLO 205, 30 µM (inactive); in the assay with RXF 393, 29.3 µM (inactive); with M14, 23.8 µM (inactive); in the assay on NCI/ADR-RES it was 11 µM (inactive). The GI50 with OVCAR-4 is 38.5 µM (inactive); in the assay with NCI-H23, 12.1 µM (inactive); in the assay with SK-MEL-28, 25.1 µM (inactive); in the assay with NCI-H522, 13 µM (inactive); in the assay on TK-10, 14.9 µM (inactive); in the assay on SR, 3.19 µM (inactive). Further, the GI50 was 8.71 µM (inactive) in the assay with SK-MEL-5 and 14.7 µM (inactive) with UACC-257.

Turning to `C/C(=N\NC(=O)c1ccc(Cl)cc1)c1nc2cccnc2[nH]1`, the GI50 with OVCAR-8 is 15.5 µM (inactive); with A549, 30.2 µM (inactive); in the assay with KM12 it was 24.8 µM (inactive); with LOX IMVI it was 12.2 µM (inactive); with HT-29 it was 45.9 µM (inactive); with K562 it was 42.6 µM (inactive). The GI50 was 22.9 µM (inactive) with OVCAR-3; 49 µM (inactive) in the assay with DU-145; 30.5 µM (inactive) with COLO 205; 18.1 µM (inactive) with RXF 393; 36.2 µM (inactive) in the assay on M14; 20.5 µM (inactive) in the assay on NCI/ADR-RES. The GI50 in the assay on OVCAR-4 was 18.2 µM (inactive); in the assay with NCI-H23, 33.8 µM (inactive); in the assay with SK-MEL-28, 27 µM (inactive); with NCI-H522 it was 18.7 µM (inactive); with TK-10 it was 15.2 µM (inactive); with SR, 18 µM (inactive). Also, the GI50 was 15.8 µM (inactive) with SK-MEL-5 and 20 µM (inactive) with UACC-257.

Consider `C=C1C(=O)O[C@@H]2/C=C(\C)CC/C=C(/COC(C)=O)C[C@@H](OC(C)=O)[C@@H]12`, for which the GI50 in the assay with OVCAR-8 is 14.1 µM (inactive); in the assay on A549, 37.4 µM (inactive); in the assay on KM12, 14.8 µM (inactive); in the assay with LOX IMVI, 5.19 µM (inactive); in the assay with HT-29, 4.24 µM (inactive); in the assay on K562, 3.21 µM (inactive). The GI50 with OVCAR-3 is 4.49 µM (inactive); in the assay on DU-145, 6.79 µM (inactive); in the assay on COLO 205 it was 3.44 µM (inactive); in the assay on RXF 393, 9.38 µM (inactive); in the assay on M14, 12.6 µM (inactive); in the assay on NCI/ADR-RES it was 17.9 µM (inactive). Moreover, the GI50 in the assay with OVCAR-4 was 20.2 µM (inactive); in the assay with NCI-H23, 13.6 µM (inactive); with SK-MEL-28 it was 8.99 µM (inactive); in the assay on NCI-H522 it was 1.16 µM (inactive); in the assay with TK-10, 7.83 µM (inactive); with SR it was 2.16 µM (inactive). For the same compound, the results for the GI50 in the assay on SK-MEL-5 and with UACC-257 were 11.6 µM (inactive) and 13.4 µM (inactive), respectively.

For the compound `OC1(c2ccc(Cl)cc2)c2ccccc2-c2nc3ccccc3n21` (centres undefined), the GI50 in the assay with OVCAR-8 was 82.8 µM (inactive); in the assay with A549, 52.7 µM (inactive); in the assay on KM12, > 100 µM (inactive); in the assay on LOX IMVI it was > 100 µM (inactive); with HT-29, 72.6 µM (inactive); in the assay on K562, > 100 µM (inactive). The GI50 with OVCAR-3 was 48.4 µM (inactive); with DU-145 it was 79.4 µM (inactive); in the assay on COLO 205, > 100 µM (inactive); in the assay on RXF 393, 29.2 µM (inactive); in the assay with M14, > 100 µM (inactive); with NCI/ADR-RES, 67.1 µM (inactive). Moreover, the GI50 is > 100 µM (inactive) in the assay with OVCAR-4; 89.3 µM (inactive) in the assay on NCI-H23; > 100 µM (inactive) in the assay with SK-MEL-28; 66.8 µM (inactive) in the assay with NCI-H522; > 100 µM (inactive) in the assay with TK-10; 74.5 µM (inactive) in the assay on SR. Moreover, the GI50 in the assay on SK-MEL-5 and in the assay on UACC-257 was > 100 µM (inactive) each time.
